Measurements taken from US12545892B2, “Application of TGF-B inhibitor in inducing neural stem cells and organoid formation” (IREGENE THERAPEUTICS, CO., LTD., priority 2020, dated 2026).

Legend:
[1] = test system: Human pluripotent stem cells; assay: Chemical induction of neural stem cells from pluripotent stem cells (neural rosette formation, cell morphology); format: cell-based
Description: Human pluripotent stem cells include embryonic pluripotent stem cells, such as the H9 cell line and human induced pluripotent stem cells. Wherein, the human induced pluripotent stem cells used in the present invention are obtained from the reprogramming of CD34^+ cells, which refers to “reprogramming culture medium and reprogramming induced pluripotent stem cell culture method” (the method in the patent ZL201910050800.7).
Human pluripotent stem cells are used to coat T25 cell culture flasks with Matrigel ([…] Technologies), and then placed in a 37° C. incubator for more than one hour after plating. Follow 1×10^6 Cells were seeded in T25 flasks for expansion and passage.
For neural induction, use 50 μg/mL poly-lysine (SIGMA, Cat. No.: P6407) to coat a 6-well culture plate, and incubate at 37° C. for more than 3 hours after plating; then use 5 μg/mL Laminin (SIGMA ALDRICH, Cat. No.: 12020) for further coat, and then place in a 37° C. incubator to incubate for more than 3 hours. When pluripotent stem cells reached 70% coverage, they were digested with EDTA at 37° C. for 5 min, and DMEM was used to stop cell digestion. Cells are washed and centrifuged at 2×10^5 the proportions of each flask and are re-seeded in T25 plates. Neural induction is performed using the medium of the present invention in combination with the neural inducing compound, and the medium is changed every day until the neural stem cell rosette is formed. […] Therefore, the single-molecule inducing method provided by this method can induce pluripotent stem cells to form neural rosette structures more efficiently and uniformly.
(§1) From the above results, it is known that the differentiation is not complete under the low concentration condition, and many different types of cells can be seen. However, neural stem cells obtained in high concentration condition are easily differentiated and cell stress appears.

[2] = test system: Human pluripotent stem cells; assay: Cyquant assay of cell viability during neural induction; format: cell-based; conditions: samples on days 1, 5, 10, 15 and 20; control LSB method; FIG. 1c
Experimental: (§2) The Cyquant assay was used to perform the quantitative detection of cell viability, thus investigating the effect of LY2157299 on the physiological state of the cells during long-term culture of the cells; Among them, the LSB method was used as the control group. 96-well light-tight cell culture plates were coated; after the coating was complete, cells were seeded separately at 5×10^4 cell number per well and three sets of parallel replicates were set (the average of three sets was calculated as data) to repeat the procedure of example 2.1. Wherein, the culture procedures described previously were incubated at 37° C. with 5% CO2. Samples were taken on days 1, 5, 10, 15 and 20 for cell viability assay using CyQuant Kit (Invitrogen, cat. No: X12223). The aforementioned assay was operated according to the instructions with a Spectramax i3 Multi-Mode Microplate Reader (VWR, model number: ID3-STD) for data reading.

[3] = test system: Sox2, Pax6, Nestin, CASP3; assay: Q-PCR of marker genes during induction from pluripotent stem cells to neural stem cells; format: cell-based, human; conditions: different concentrations
Experimental: Transcriptional changes of different marker genes during induction from pluripotent stem cells to neural stem cells were detected by using Q-PCR. The induced pluripotent stem cells used in this example are neural stem cells derived by LY inducing method and LSB inducing method, respectively. Neural stem cells were prepared as described previously using Rneasy Mini or Micro Kit (QIAGEN) for total RNA extraction, in which […] RNA was used to synthesize cDNA with superscript III First-Strand Synthesis System (Invitrogen).
All the above data were analyzed with the delta-Ct method. Each set of trials was tested using three sets of replicates, and variance statistics were performed.
as §1

[4] = test system: neural stem cells obtained by the LY inducing method; assay: Directed differentiation of induced neural stem cells into neurons (immunofluorescence); format: cell-based, human
Experimental: The neural stem cells obtained by the LY inducing method in Example 2 were subjected to directed differentiation in NouvNeu001 basal medium. For neuronal differentiation, use 50 μg/mL polylysine (SIGMA ALDRICH, Cat. No.: P6407) to coat a 6-well culture plate, and place the plate in a 37° C. incubator and incubate for more than 3 hours until cells are seeded.
The neural stem cells obtained in example 2 were seeded at a density of 1×10^5 the ratio per flask was inoculated in T25 flasks, and 3 μM CHIR99021 (Selleck, Cat. No.: S2924), 10 μM SU5402 (Tocris, Cat. No.: 3300/1), 10 μM DAPT (Selleck, Cat. No.: S2215) were added to NouvNeu001 basal medium. Fresh medium was replaced every 3 days until day 21. The above cultures were incubated at 37° C. with 5% CO2.
The neural stem cells obtained in example 2 were seeded at a density of 1×10^5 the ratio per flask was inoculated in T25 flasks, and 1 μM Purmorphamine (Sellek, Cat. No.: S3042) and 1 ng/mL TGF-β3 (Novoprotein, Cat. No.: CJ44) were added to NouvNeu001 basal medium to culture neural stem cells. Fresh medium was replaced every 3 days until day 30. The above cultures were incubated at 37° C. with 5% CO2.
The neural stem cells obtained in example 2 were seeded at a density of 1×10^5 the ratio per flask was inoculated in T25 flasks, and 0.5 μM retinyl acetate (SIGMA ALDRICH, Cat. No.: R7782) was added to NouvNeu001 basal medium. Fresh medium was replaced every 3 days until day 24. The above cultures were incubated at 37° C. with 5% CO2.
After induction and differentiation, the cells were harvested and identified by immunofluorescence staining: cells were fixed with 4% paraformaldehyde at room temperature for 40 minutes, washed twice with DPBS buffer; then permeabilized with 0.1% Triton X-100 for 5 minutes, and buffered with DPBS The cells were then washed twice with DPBS buffer containing 10% horse serum and 0.1% Triton X-100 at 4° C. overnight; the cells were washed with DPBS buffer and then washed with 2% horse serum and 0.1% Triton X-100. […]

[5] = test system: MHC associated genes CD4, HLA-A, HLA-C, hla-f, and HLA-DPB1; assay: Q-PCR detection of MHC genes of induced neural stem cells; format: cell-based; conditions: compared with human pluripotent stem cells; FIG. 6
Description: The major histocompatibility complex (MHC) genes of neural stem cells induced by LY2157299 was detected by Q-PCR method, and pluripotent stem cells (iPS) were used as control.

HLA-DR = assay: Flow cytometry detection of HLA-DR antigens of induced neural stem cells; format: cell-based, human; conditions: FIG. 7
Experimental: The HLA-DR antigens of neural stem cells induced by LY2157299 were detected by flow cytometry. HLA-DR is an MHC class II molecule whose expression is critical for the antigen-presenting function of cells and plays a key role in adoptive immune responses. The induced neural stem cells obtained in Example 2 were digested with EDTA, washed with DPBS, centrifuged to remove the supernatant, and 10^6 Cells were resuspended in 100 μL of diluted primary antibody (CD45 PerCP, Abeam, Cat. No. ab157309; HLA-DR FITC, CST, Cat. No. 54126), incubated on ice for 1 hour in the dark, centrifuged to remove supernatant, and cells were resuspended in 500 μL of antibody dilution buffer (CST) and analyzed on a flow cytometer. Samples incubated without primary antibody were used as controls. The results are shown in FIG. 7, FIG. 7a is a negative control, FIG. 7b is the HLA-DR detection result of the neural stem cells obtained by LY2157299 induction.

[6] = test system: human induced pluripotent stem cells; assay: Brain organoid culture from induced pluripotent stem cells (formation, diameter); format: cell-based; conditions: 12.5 μM in basal medium to day 10, culture to day 120
Experimental: Organoid culture was performed with human induced pluripotent stem cells. Organoid inducing medium was formulated as follows: NouvNeu basal medium supplemented with 12.5 μM LY2157299. Induced pluripotent stem cells were digested to single cells by Accutase, seeded in U-bottom-ultra-low attachment 96-well plates at a ratio of 9000 cells/[…] of brain organoid inducing medium per well. 10 μM ROCK inhibitor Y-27632 (Selleck, S1049) was added, and the cells were placed in a 37° C., 5% carbon dioxide cell incubator for 24 hours (Panasonic, model: MCO-18AC). Y-27632-free fresh organoid inducing medium was changed the following day until day 10. Day 10 the organoids were transferred to ultra-low-attachment 6-well plates and the medium was changed to NouvNeu001 basal medium supplemented with 2% B27 cell culture additive. The culture was conducted at 37° C. in a 5% CO2 cell culture incubator on a horizontal rotator at 80 rpm until day 120.
The control experiment was carried out according to the published method (Clair B et. al, Nat Methods. 2019, November; 16 (11): 1169-1175). N2B27 was used as the basic medium for organ like culture. […]
Organoids were photographed by Leica Dmi8. The brain organoids were photographed and their diameters were measured. […]

[7] = Freezing point osmometer, osmolality of the culture system; format: physicochemical; conditions: sodium chloride concentration 1 μg/mL; FIG. 2a
Description: A fully automated freezing point osmometer (FM-8P, Shanghai Yida Instruments Co., Ltd.) was used to detect the effects of different concentrations of sodium chloride on the osmolality of the culture system, and the specific operations were enrolled in the product instructions (FM-8P, Shanghai Yida Instruments Co., Ltd.). The test results are detailed in FIG. 2a. The results illustrate a linear increase with the concentration of sodium chloride and the osmotic pressure of the culture system. However, when the concentration reached 1 μg/mL, the osmolality of the culture system already exceeded the cell culture limit of 320 mOsm/kg.

[8] = test system: Human pluripotent stem cells; assay: CyQuant assay of medium components (cell viability in long-term culture); format: cell-based; conditions: different concentrations, FIG. 2b-2c
Experimental: as §2

Cc1cccc(-c2nn3c(c2-c2ccnc4ccc(C(N)=O)cc24)CCC3)n1 [LY2157299, 4-(2-(6-methylpyridin-2-yl)-5,6-dihydro-4h-pyrrolo[1,2-b]pyrazol-3-yl) quinoline-6-carboxamide]
cell population obtained by chemical induction ([1]; 12.5 μM in NouvNeu001 basal medium, FIG. 4d): resulted in a uniform cell population | cell population obtained by chemical induction ([1]; 25 μM in NouvNeu001 basal medium, FIG. 4e): a mixed population of neural cells was obtained | cell stress during chemical induction ([1]; 25 μM, FIG. 4e): cells showed signs of stress with intracellular vacuoles | cell population obtained by chemical induction ([1]; in NouvNeu001 basal medium, FIG. 4c): a mixed population of cells including neural cells was obtained | number of neural cells (cell viability, CyQuant) [2]: induced more number of neural cells compared with LSB method | regulation of Pax6 expression by concentration (Q-PCR) ([3]; FIG. 4f): positively correlated with Pax6 expression | regulation of apoptosis gene CASP3 by concentration (Q-PCR) ([3]; FIG. 4g): positively correlated with apoptosis | nociceptor neuron differentiation of induced neural stem cells, marker expression ([4]; CHIR99021, SU5402, DAPT until day 21, FIG. 5a-5c): express the nociceptor neuron specific marker SCNI11A | dopaminergic neuron differentiation of induced neural stem cells, marker expression ([4]; Purmorphamine, TGF-β3 until day 30, FIG. 5d-5f): can express mature dopaminergic neuron specific marker Pitx3 | photoreceptor neuron differentiation of induced neural stem cells, marker expression ([4]; retinyl acetate until day 24, FIG. 5g-5i): can express the photoreceptor neuron specific marker OPSIN | expression of MHC associated genes in induced neural stem cells (Q-PCR) [5]: expressed at extremely low levels | HLA-DR antigen expression of induced neural stem cells (flow cytometry) (HLA-DR): do not express HLA-DR | generation of cerebral organoids [6]: can induce the generation of cerebral organoids

[Cl-].[Na+] [sodium chloride]
osmolality of the culture system [7]: > 320 mOsm/kg

recombinant insulin: component of the basal medium, screened at different concentrations
effect of concentration on cell proliferation (CyQuant) [8]: positively correlated with the rate of cell proliferation
